In PubChem BioAssay AID330 (DTP/NCI, 2004):
Several values for one entry are separate records, joined by “and”; a condition that tells them apart may be missing. Equal values may be shown once. Toxic doses and inconclusive results are not listed. Rule for the calls: active = survival T/C of 150% or more; inactive = T/C below 125% in these data.

Tested on: P388 leukemia ip, CD2F1 mice, survival T/C
Assay: NCI In Vivo Anticancer Drug Screen. Data for tumor model P388 Leukemia (intraperitoneal) in CD2F1 (CDF1) mice
Conditions: endpoint: median survival time, higher = longer survival
In short: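 Mice carrying the transplanted tumor received test compound or vehicle. Survival was recorded in each group, and the value is the treated-group measurement divided by that of the vehicle-treated control group.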

[1] = dose: 50.0 mg/kg/injection, schedule: Q01DX009 (ip), vehicle: Klucel (hydroxypropylcellulose) (HPC)
[2] = dose: 100.0 mg/kg/injection, schedule: Q01DX009 (ip), vehicle: Klucel (hydroxypropylcellulose) (HPC)
[3] = dose: 200.0 mg/kg/injection, schedule: Q01DX009 (ip), vehicle: Klucel (hydroxypropylcellulose) (HPC)
[4] = dose: 50.0 mg/kg/injection, schedule: Q01DX005 (ip), vehicle: Klucel (hydroxypropylcellulose) (HPC)
[5] = dose: 100.0 mg/kg/injection, schedule: Q01DX005 (ip), vehicle: Klucel (hydroxypropylcellulose) (HPC)
[6] = dose: 200.0 mg/kg/injection, schedule: Q01DX005 (ip), vehicle: Klucel (hydroxypropylcellulose) (HPC)

Measured: T/C

CCOC(=O)C(NC(C)=O)(C(=O)OCC)C(C)C(O)c1ccc(OC)c(OC)c1O (stereo not given)
inactive: [1] 108 % of control | [2] 103 % of control | [3] 109 % of control | dose: 400.0 mg/kg/injection, schedule: Q01DX009 (ip), vehicle: Klucel (hydroxypropylcellulose) (HPC) 93 % of control

NC(=S)N/N=C/c1ccc(O)cn1
active: dose: 18.8 mg/kg/injection, schedule: Q01DX009 (ip), vehicle: other 152 % of control and 185 % of control | dose: 18.8 mg/kg/injection, schedule: Q01DX009 (ip), vehicle: saline with Tween-80 156 % of control | dose: 37.5 mg/kg/injection, schedule: Q01DX009 (ip), vehicle: other 175 % of control and 221 % of control | dose: 37.5 mg/kg/injection, schedule: Q01DX009 (ip), vehicle: saline 172 % of control | dose: 75.0 mg/kg/injection, schedule: Q01DX009 (ip), vehicle: saline with Tween-80 173 % of control | dose: 75.0 mg/kg/injection, schedule: Q01DX009 (ip), vehicle: saline 160 % of control
inactive: dose: 25.0 mg/kg/injection, schedule: Q01DX001 (ip), vehicle: Klucel (hydroxypropylcellulose) (HPC) 118 % of control and 119 % of control | dose: 25.0 mg/kg/injection, schedule: Q04DX002 (ip), vehicle: Klucel (hydroxypropylcellulose) (HPC) 113 % of control and 116 % of control | dose: 25.0 mg/kg/injection, schedule: Q04DX003 (ip), vehicle: Klucel (hydroxypropylcellulose) (HPC) 115 % of control

COCC(CN1CCN(c2ccccc2OC)CC1)OC (stereo not given)
inactive: dose: 12.5 mg/kg/injection, schedule: Q01DX009 (ip), vehicle: saline 97 % of control | dose: 25.0 mg/kg/injection, schedule: Q01DX009 (ip), vehicle: saline 98 % of control | dose: 50.0 mg/kg/injection, schedule: Q01DX009 (ip), vehicle: saline 90 % of control

Fc1ccc2[nH]c3ncccc3c2c1
inactive: dose: 50.0 mg/kg/injection, schedule: Q01DX005 (ip), vehicle: saline with Tween-80 106 % of control | dose: 100.0 mg/kg/injection, schedule: Q01DX005 (ip), vehicle: saline with Tween-80 105 % of control | dose: 200.0 mg/kg/injection, schedule: Q01DX005 (ip), vehicle: saline with Tween-80 100 % of control

CCCCCCCCCCCCCCCCNC(=S)N=Nc1cc(C(C)C)c(NNC(=S)NCCCCCCCCCCCCCCCC)cc1C
inactive: [4] 92 % of control | [5] 99 % of control | [6] 97 % of control

O=C(Nc1ccc(C(=O)O)cc1)Nc1nccs1
inactive: dose: 12.5 mg/kg/injection, schedule: Q01DX009 (ip), vehicle: distilled water + Tween-80 89 % of control | dose: 25.0 mg/kg/injection, schedule: Q01DX009 (ip), vehicle: distilled water + Tween-80 118 % of control | dose: 50.0 mg/kg/injection, schedule: Q01DX009 (ip), vehicle: distilled water + Tween-80 122 % of control
active: dose: 100.0 mg/kg/injection, schedule: Q01DX009 (ip), vehicle: distilled water + Tween-80 150 % of control | dose: 200.0 mg/kg/injection, schedule: Q01DX009 (ip), vehicle: distilled water + Tween-80 163 % of control

COC(=Nc1ccccc1)SSC(C)C
inactive: dose: 25.0 mg/kg/injection, schedule: Q01DX009 (ip), vehicle: saline with Tween-80 115 % of control | dose: 50.0 mg/kg/injection, schedule: Q01DX009 (ip), vehicle: saline with Tween-80 115 % of control

c1cc2onc3c4cccc5onc(c(c1)c23)c54
inactive: dose: 8.75 mg/kg/injection, schedule: Q01DX005 (ip), vehicle: Klucel (hydroxypropylcellulose) (HPC) 99 % of control | dose: 17.5 mg/kg/injection, schedule: Q01DX005 (ip), vehicle: Klucel (hydroxypropylcellulose) (HPC) 93 % of control | dose: 35.0 mg/kg/injection, schedule: Q01DX005 (ip), vehicle: Klucel (hydroxypropylcellulose) (HPC) 99 % of control

CC(=O)Oc1ccccc1O
inactive: dose: 25.0 mg/kg/injection, schedule: Q01DX009 (ip), vehicle: saline + Tween-80 + alcohol 106 % of control | dose: 50.0 mg/kg/injection, schedule: Q01DX009 (ip), vehicle: saline + Tween-80 + alcohol 101 % of control and 105 % of control and 116 % of control | dose: 100.0 mg/kg/injection, schedule: Q01DX009 (ip), vehicle: saline + Tween-80 + alcohol 109 % of control and 115 % of control

N#Cc1ccc(NN=O)nc1
active: dose: 6.25 mg/kg/injection, schedule: Q01DX009 (ip), vehicle: water 159 % of control | dose: 12.5 mg/kg/injection, schedule: Q01DX009 (ip), vehicle: water 151 % of control and 169 % of control | dose: 25.0 mg/kg/injection, schedule: Q01DX009 (ip), vehicle: water 194 % of control and 268 % of control
inactive: dose: 3.13 mg/kg/injection, schedule: Q01DX009 (ip), vehicle: water 116 % of control and 123 % of control

Cc1ccc2c(c1)C1(C)OC(C=CC1S(=O)c1ccccc1)O2 (stereo not given)
inactive: [4] 102 % of control | [5] 101 % of control | [6] 113 % of control

CC1(C)C(=O)C2(CCCCC2)C1N1CCCCC1 (stereo not given)
inactive: [1] 96 % of control | [2] 98 % of control | [3] 107 % of control
